Reference: patent US20100261679A1 (priority 2007, published 2010)

Assays:
[1] = target: T1, cytoplasmic domain of the human CSF-1R (Homo sapiens, UniProt P07333); experiment: In vitro kinase assay for CSF-1R (AlphaScreen); type: biochemical; conditions: tested at about 1 μM
T1 construct: Recombinant protein corresponding to the cytoplasmic domain of the human CSF-1R; purchased Invitrogen Corporation, Carlsbad, Calif; U.S.A. PV3249
T1 sequence (P07333 539-972 limits assumed): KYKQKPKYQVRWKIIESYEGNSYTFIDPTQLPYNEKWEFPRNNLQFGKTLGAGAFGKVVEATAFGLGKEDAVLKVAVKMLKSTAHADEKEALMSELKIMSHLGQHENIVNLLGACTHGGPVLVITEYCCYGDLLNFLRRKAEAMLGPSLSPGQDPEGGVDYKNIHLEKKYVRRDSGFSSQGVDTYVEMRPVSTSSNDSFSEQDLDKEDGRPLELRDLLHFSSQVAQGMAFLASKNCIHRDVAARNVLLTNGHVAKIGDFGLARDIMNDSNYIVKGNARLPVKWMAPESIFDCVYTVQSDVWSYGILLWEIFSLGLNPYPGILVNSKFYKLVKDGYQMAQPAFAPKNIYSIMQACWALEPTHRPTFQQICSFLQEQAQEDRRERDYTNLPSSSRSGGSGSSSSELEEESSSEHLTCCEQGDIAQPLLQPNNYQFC
Experimental: The kinase activity of various protein tyrosine kinases can be measured by providing ATP and a suitable peptide or protein tyrosine-containing substrate, and assaying the transfer of phosphate moiety to the tyrosine residue. Recombinant protein corresponding to the cytoplasmic domain of the human CSF-1R was purchased from Invitrogen Corporation, Carlsbad, Calif. U.S.A. (#PV3249). For each assay, test compounds were serially diluted, starting at 25 μM with 3 fold dilutions, in DMSO in 384 well plates then mixed with an appropriate kinase reaction buffer consisting of 50 mM Hepes, 5 mM MgCl2, 10 mM MnCl2, 0.1% BSA, pH 7.5, 1.0 mM dithiothreitol, 0.01% Tween 80 plus […]. Kinase protein and an appropriate biotinylated peptide substrate at 50 nM were added to give a final volume of 20 μL, reactions were incubated for 2 hours at room temperature and stopped by the addition of 10 μL of 45 mM EDTA, 50 mM Hepes pH 7.5. Added to the stopped reaction mix was 30 μL of PT66 Alphascreen beads (Perkin Elmer, Boston, Mass., U.S.A.). The reaction was incubated overnight and read on the Envision (Perkin Elmer). Phosphorylated peptide product was measured with the AlphaScreen system (Perkin Elmer) using acceptor beads coated with anti-phosphotyrosine antibody PT66 and donor beads coated with streptavidin that emit a fluorescent signal at the 520-620 nm emission wave length if in close proximity. The concentration of each compound for 50% inhibition (IC50) was calculated by non-linear regression using XL Fit data analysis software.
CSF-1R kinase was assayed in 50 mM Hepes pH 7.0, 5 mM MgCl2, 10 mM MnCl2, 1 mM DTT, 1 mg/mL BSA, 1.0 μM ATP, and 0.05 μM biotin-GGGGRPRAATF-NH2 (SEQ ID NO:2) peptide substrate. CSF-1R kinase was added at final concentration of 4 nM.

PDGFRb = target: T2, PDGFRb (Homo sapiens, UniProt P09619); experiment: Inhibition of PDGFRb kinase in an in vitro biochemical assay (alphascreen); conditions: tested at about 1 μM; read-out: PDGFR % inhibition at 1 μM
T2 construct: The kinase domain of PDGFRβ was assayed in 50 mM Hepes; purchased Invitrogen P3082
T2 sequence (P09619 600-962 limits assumed): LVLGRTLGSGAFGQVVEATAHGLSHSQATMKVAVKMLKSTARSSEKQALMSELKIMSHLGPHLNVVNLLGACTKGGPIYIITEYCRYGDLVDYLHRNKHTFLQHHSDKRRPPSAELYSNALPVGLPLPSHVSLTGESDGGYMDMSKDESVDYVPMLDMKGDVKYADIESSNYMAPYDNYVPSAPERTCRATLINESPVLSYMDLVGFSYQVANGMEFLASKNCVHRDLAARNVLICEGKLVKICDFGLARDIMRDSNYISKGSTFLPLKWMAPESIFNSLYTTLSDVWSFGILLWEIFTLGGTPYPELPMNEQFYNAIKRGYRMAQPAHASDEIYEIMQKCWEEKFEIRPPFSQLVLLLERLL
Experimental: (§1) The IC50 values for the inhibition of RTKs were determined in the alphascreen format measuring the inhibition by compound of phosphate transfer to a substrate by the respective enzyme. Briefly, the respective RTK domain purchased as human recombinant protein (cKIT Upstate #14-559, PDGFRb Invitrogen #P3082) were incubated with serial dilutions of compound in the presence of substrate and ATP concentrations within 3 times the Km of the enzyme.
(§2) The kinase domain of cKIT was assayed in 50 mM Hepes, pH=7.5, 5 mM MgCl2, 10 mM MnCl2, 1 mM DTT, 0.1% BSA with 0.06 uM biotinylated peptide substrate (GGLFDDPSYVNVQNL-NH2) and 15 μM ATP (ATP KM apparent =15 μM). The kinase domain of PDGFRβ was assayed in 50 mM Hepes, pH=7.5, 20 mM MgCl2, 1 mM DTT, 0.1% BSA with 0.1 μM biotinylated peptide substrate (GGLFDDPSYVNVQNL-NH2) and 10 μM ATP (ATP KM apparent=25 μM). Reactions were incubated at room temperature for 3 to 4 hr and stopped with buffer (20 mM EDTA, 0.01% Tween-20 for both PDGFRβ and cKIT). Alphascreen PY20 beads were added to the stopped cKIT reactions and PY20 Ab/Protein A Alphascreen beads were added to the PDGFRβ stopped reactions. Both reactions were incubated overnight and read on the Alphascreen reader. The concentration of compound for 50% inhibition (IC50) was calculated employing non-linear regression using XL-Fit data analysis software. As a control compound, staurosporine is run in every assay and a Z′>0.5 is required to validate results.

cKIT = target: T3, cKIT (Homo sapiens, UniProt P10721); experiment: Inhibition of cKIT kinase in an in vitro biochemical assay (alphascreen); conditions: tested at about 1 μM
T3 construct: The kinase domain of cKIT was assayed in 50 mM Hepes; purchased Upstate 14-559
T3 sequence (P10721 589-937 limits assumed): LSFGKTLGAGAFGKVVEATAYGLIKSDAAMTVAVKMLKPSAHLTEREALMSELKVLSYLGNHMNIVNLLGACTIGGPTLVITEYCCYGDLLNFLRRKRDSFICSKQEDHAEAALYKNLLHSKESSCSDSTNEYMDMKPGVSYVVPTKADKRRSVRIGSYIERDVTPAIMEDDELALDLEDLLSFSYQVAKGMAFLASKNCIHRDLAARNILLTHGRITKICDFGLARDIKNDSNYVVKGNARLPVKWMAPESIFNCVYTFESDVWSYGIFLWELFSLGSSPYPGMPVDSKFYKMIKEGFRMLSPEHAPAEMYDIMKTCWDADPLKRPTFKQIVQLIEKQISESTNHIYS
Experimental: as §1, §2

inhibition at 1 µM [1] [%] | inhibition at 1 µM (PDGFRb) [%] | inhibition at 1 µM (cKIT) [%] | SMILES
65 | 27 | 49 | OC(c1ccncc1)c1ccc2nc(NCC3CCCCC3)sc2c1 (stereo not drawn) [Example 76, (2-(cyclohexylmethylamino)benzo [d]thiazol-6-yl)(pyridin-4-yl)methanol]
100 | 25 | 60 | CNC(=O)c1cc(Oc2ccc3nc(N[C@H]4c5ccccc5C[C@H]4O)ncc3c2)ccn1 [Cmpd 20, 4-(2-((1S,2R)-2-hydroxy-2,3-dihydro-1H-inden-1-ylamino)quinazolin-6-yloxy)-N-methylpicolinamide]
99 | < 1 | 16 | CNC(=O)c1cc(Oc2ccc3nc(NCC4(N5CCOCC5)CCCCC4)ncc3c2)ccn1 [Example 37, N-methyl-4-(2-((1-morpholinocyclohexyl)methylamino)quinazolin-6-yloxy)picolinamide]
99 | 3 | 44 | CNC(=O)c1cc(Oc2ccc3nc(Nc4ccccc4OC)ncc3c2)ccn1 [Example 44, 4-(2-(2-methoxyphenylamino)quinazolin-6-yloxy)-N-methylpicolinamide]
99 | 30 | 30 | CNC(=O)c1cc(Oc2ccc3nc(N[C@@H]4CCCC[C@H]4O)[nH]c3c2)ccn1 [Example 82, 4-(2-((1R,2R)-2-hydroxycyclohexylamino)-1H-benzo[d]imidazol-6-yloxy)-N-methylpicolinamide]
93 | < 1 | 12 | CNC(=O)c1cc(Oc2ccc3nc(NCC(C)(C)N4CCOCC4)ncc3c2)ccn1 [Example 61, N-methyl-4-(2-(2-methyl-2-morpholinopropylamino)quinazolin-6-yloxy)picolinamide]
100 | 26 | 58 | CNC(=O)c1cc(Oc2ccc3nc(N[C@@H](C)C4CCCCC4)ncc3c2)ccn1 [Cmpd 16, (S)-4-(2-(1-cyclohexylethylamino)quinazolin-6-yloxy)-N-methylpicolinamide]
99 | 13 | 13 | CNC(=O)c1cc(Oc2ccc3nc(NC(=O)C4CCCCC4)ncc3c2)ccn1 [Example 59, 4-(2-(cyclohexanecarboxamido)quinazolin-6-yloxy)-N-methylpicolinamide]
100 | 92 | 6 | CNC(=O)c1cc(Oc2ccc3nc(NCc4ccccc4N4CCOCC4)ncc3c2)ccn1 [Example 41, N-methyl-4-(2-(2-morpholinobenzylamino)quinazolin-6-yloxy)picolinamide]
90 | 11 | < 1 | CNC(=O)c1cc(Oc2ccc3nc(Nc4ccccc4OCCCO)ncc3c2)ccn1 [Example 71, 4-(2-(2-(3-hydroxypropoxy)phenylamino)quinazolin-6-yloxy)-N-methylpicolinamide]
84 | < 1 | 17 | CCOC(=O)N1CCC(Nc2ncc3cc(Oc4ccnc(C(=O)NC)c4)ccc3n2)CC1 [Example 56, ethyl 4-(6-(2-(methylcarbamoyl)pyridin-4-yloxy)quinazolin-2-ylamino)piperidine-1-carboxylate]
100 | 32 | 21 | CNC(=O)c1cc(Oc2ccc3nc(N[C@H]4CCCC[C@@H]4O)ccc3c2)ccn1 [Example 2]
99 | 31 | 30 | CNC(=O)c1cc(Oc2ccc3nc(N[C@H](CO)C4CCCCC4)ncc3c2)ccn1 [Cmpd 18, (S)-4-(2-(1-cyclohexyl-2-hydroxyethylamino)quinazolin-6-yloxy)-N-methylpicolinamide]
100 | 66 | 99 | CNC(=O)c1cc(Oc2ccc3nc(NCc4cccc5c4OCCO5)ncc3c2)ccn1 [Example 42, 4-(2-((2,3-dihydrobenzo[b][1,4]dioxin-5-yl)methylamino)quinazolin-6-yloxy)-N-methylpicolinamide]
80 | 2 | 14 | CCNC(=O)c1cc(Oc2ccc3nc(Nc4ccccc4N4CCOCC4)ncc3c2)ccn1 [Example 34, N-ethyl-4-(2-(2-morpholinophenylamino)quinazolin-6-yloxy)picolinamide]
65 | < 1 | 8 | CNC(=O)c1cc(Oc2ccc3nc(NC4CCOCC4)ncc3c2)ccn1 [Example 58, N-methyl-4-(2-(tetrahydro-2H-pyran-4-ylamino)quinazolin-6-yloxy)picolinamide]
100 | < 1 | 18 | CNC(=O)c1cc(Oc2ccc3nc(NC4CCCCC4)ncc3c2)ccn1 [Example 74, 4-(2-(cyclohexylamino)quinazolin-6-yloxy)-N-methylpicolinamide]
62 | 19 | 8 | CNC(=O)c1cc(Oc2ccc3nc(N[C@@H]4CCCC[C@H]4N)ncc3c2)ccn1 [Example 73, 4-(2-((1R,2R)-2-aminocyclohexylamino)quinazolin-6-yloxy)-N-methylpicolinamide]
52 | 9 | 7 | CCCNc1ncc2cc(Oc3ccnc(C(=O)NC)c3)ccc2n1 [Example 52, N-methyl-4-(2-(propylamino)quinazolin-6-yloxy)picolinamide]
100 | 3 | 30 | CNC(=O)c1cc(Oc2ccc3nc(N[C@@H]4c5ccccc5C[C@@H]4O)ncc3c2)ccn1 [Cmpd 19, 4-(2-((1R,2S)-2-hydroxy-2,3-dihydro-1H-inden-1-ylamino)quinazolin-6-yloxy)-N-methylpicolinamide]
100 | 38 | 61 | CNC(=O)c1cc(Oc2ccc3nc(N[C@@H](CO)C4CCCCC4)ncc3c2)ccn1 [Cmpd 17, (R)-4-(2-(1-cyclohexyl-2-hydroxyethylamino)quinazolin-6-yloxy)-N-methylpicolinamide]
98 | < 1 | 24 | CNC(=O)c1cc(Oc2ccc3nc(NCc4ccc5c(c4)OCCO5)ncc3c2)ccn1 [Example 43, 4-(2-((2,3-dihydrobenzo[b][1,4]dioxin-6-yl)methylamino)quinazolin-6-yloxy)-N-methylpicolinamide]
